Measured values from ChEMBL document CHEMBL1135854, “Absorption studies on aminoglycoside binding to the packaging region of human immunodeficiency virus type-1” (Bioorg Med Chem Lett, 2002).

System: Human immunodeficiency virus 1
Assay: Binding to 176-mer RNA from the packaging region of HIV-1 (LAI) and value of binding constant K is determined
Type: functional

Structure (SMILES)	K [M⁻¹]
N=C(N)NCC1OC(OC2C(CO)OC(OC3C(O)C(NC(=N)N)CC(NC(=N)N)C3OC3OC(CNC(=N)N)C(O)C(O)C3NC(=N)N)C2O)C(NC(=N)N)C(O)C1O (stereo not given)	100000
NCC1OC(OC2C(CSCCNc3c4ccccc4nc4ccccc34)OC(OC3C(O)C(N)CC(N)C3OC3OC(CN)C(O)C(O)C3N)C2O)C(N)C(O)C1O (stereo not given)	16000
NC[C@@H]1O[C@H](O[C@H]2[C@@H](O)[C@H](O[C@@H]3[C@@H](O)[C@H](N)C[C@H](N)[C@H]3O[C@H]3O[C@H](CN)[C@@H](O)[C@H](O)[C@H]3N)O[C@@H]2CO)[C@H](N)[C@@H](O)[C@@H]1O	120000
NCC1O[C@H](O[C@H]2[C@@H](O)[C@H](O[C@H]3[C@H](O)[C@@H](N)C[C@@H](N)[C@@H]3O[C@H]3O[C@H](CN)[C@@H](O)[C@H](O)[C@H]3N)O[C@@H]2CSCCOCCSSCCOCCSC[C@H]2O[C@@H](O[C@H]3[C@H](O)[C@@H](N)C[C@@H](N)[C@@H]3O[C@H]3O[C@H](CN)[C@@H](O)[C@H](O)[C@H]3N)[C@H](O)[C@@H]2O[C@@H]2OC(CN)[C@H](O)[C@@H](O)[C@@H]2N)[C@H](N)[C@@H](O)[C@@H]1O (stereo not given in full)	3800
NC[C@@H]1O[C@H](O[C@H]2[C@@H](O)[C@H](O[C@@H]3[C@@H](O)[C@H](N)C[C@H](N)[C@H]3O[C@H]3O[C@H](CO)[C@@H](O)[C@H](O)[C@H]3N)O[C@@H]2CO)[C@H](N)[C@@H](O)[C@@H]1O	43000
